Laboratory results from patent publication US20110105397A1, “METHOD FOR TREATING HEART FAILURE WITH STRESSCOPIN-LIKE PEPTIDES” (priority 2009, published 2011).
Where two headings read alike, the source gives them in different places.

What was measured:
[1] = tested on: isolated rat aortic rings; test: Vascular smooth muscle relaxation, isolated rat aortic rings pre-contracted with phenylephrine
Description: The ability of h-SCP (SEQ ID NO:1) to relax vascular smooth muscle was examined in isolated, rat aortic rings pre-contracted with phenylephrine (PE) (FIG. 8). […] The responses caused by h-SCP (SEQ ID NO:1) were inhibited by anti-sauvagine-30 (SEQ ID NO:118).

[2] = tested on: dogs with advanced heart failure; test: LV pressure-volume relationship in dogs with advanced heart failure, 120-min infusion; type: in vivo, dog; conditions: HF dogs
Procedure: In a subsequent study baseline hemodynamic, ventriculographic, echocardiographic and LV pressure-volume was measured, before each dog was intravenously administered a continuous, 4.3 ng/kg/min infusion of h-SCP (SEQ ID NO:1) for 120 min. At the end of the 120-min infusion, complete hemodynamic, ventriculographic, echocardiographic, and LV pressure-volume measurements were repeated. Lead II on the electrocardiogram was monitored throughout the study for development of de novo ventricular arrhythmias. The dosing solutions were not adjusted or corrected for peptide content since the peptide content of the test article used in these studies fell between the customary 85-90% limit where this correction is not required. […]
All hemodynamic measurements were made during left and right heart catheterizations in anaesthelized dogs at each specified study time point. Aortic and LV pressures were measured using cathetenip micromanometers (Millar Instruments, Houston, Tex.), and LV end-diastolic pressure (LVEDP) was measured from the LV pressure waveform. […] Ventriculography were recorded on digital media at 30 frames per second during a power injection of 15 mL of contrast material (Conray; Mallinckrodt Inc., St. Louis, Mo.). […] The end-systolic and end-diastolic pressure-volume points were determined for beats at end-expiration in the usual fashion. […]

[3] = Human pharmacokinetics, heart failure subjects, 7.5-hour continuous ascending dose IV infusion; conditions: in vivo; for Tmax: median
Procedure: In heart failure subjects following a 7.5-hour continuous ascending dose IV infusion of h-SCP (SEQ ID NO:1) noncompartmental pharmacokinetic analyses were performed on plasma concentrations of h-SCP (SEQ ID NO:1). The pharmacokinetics of h-SCP (SEQ ID NO:1) in heart failure subjects appeared to be similar to that of healthy subjects. […] Within 30 minutes, plasma h-SCP (SEQ ID NO:1) was reduced to equal or less than 20% of the h-SCP (SEQ ID NO:1) level at the end of the infusion (FIG. 16B).

[4] = infusion rate 1/3/9 ng/kg/min, mean, N = 2
[5] = infusion rate 3/9/18 ng/kg/min, mean, N = 2
[6] = infusion rate 3/18/54 ng/kg/min, mean, N = 2

H-TKFTLSLDVPTNIMNLLFNIAKAKNLRAQAAANAHLMAQI-NH2 [SEQ ID NO: 1, TKFTLSLDVPTNIMNLLFNIAKAKNLRAQAAANAHLMAQI-NH2]
fold less potent than h-UCN2 [1]: 10 fold
pA50 of relaxation ([1]; rat aortic rings pre-contracted with phenylephrine): 6.05±0.12
absolute value of EDPVR slope ([2]; 4.3 ng/kg/min infusion for 120 min (untreated 0.257)): 0.128
slope of the ESPVR ([2]; 4.3 ng/kg/min infusion for 120 min (untreated 1.38±0.26)): 2.26±0.46
AUC(0-inf) ([3]; infusion rate 0.3/1/3 ng/kg/min, N = 1): 3.4 ng·h/mL
clearance ([3]; infusion rate 0.3/1/3 ng/kg/min, N = 1, read-out: CL (converted)): 3.17 mL/min/kg
Cmax ([3]; infusion rate 0.3/1/3 ng/kg/min, mean, N = 2): 0.826 ng/mL
Tmax ([3]; infusion rate 0.3/1/3 ng/kg/min, N = 2): 6.25 h
AUC(0-inf) [3, 4]: 6.72 ng·h/mL
Cmax [3, 4]: 1.98 ng/mL
clearance ([3]; infusion rate 1/3/9 ng/kg/min, mean, N = 2, read-out: CL (converted)): 5.33 mL/min/kg
Tmax ([3]; infusion rate 1/3/9 ng/kg/min, N = 2): 7.04 h
AUC(0-inf) [3, 5]: 19 ng·h/mL
Cmax [3, 5]: 4.77 ng/mL
clearance ([3]; infusion rate 3/9/18 ng/kg/min, mean, N = 2, read-out: CL (converted)): 4 mL/min/kg
Tmax ([3]; infusion rate 3/9/18 ng/kg/min, N = 2): 6.75 h
AUC(0-inf) [3, 6]: 24.9 ng·h/mL
Cmax [3, 6]: 6.41 ng/mL
clearance ([3]; infusion rate 3/18/54 ng/kg/min, mean, N = 2, read-out: CL (converted)): 7.67 mL/min/kg
Tmax ([3]; infusion rate 3/18/54 ng/kg/min, N = 2): 6.04 h
AUC(0-inf) ([3]; infusion rate 9/18/36 ng/kg/min, mean, N = 2): 33.8 ng·h/mL
clearance ([3]; infusion rate 9/18/36 ng/kg/min, mean, N = 2, read-out: CL (converted)): 5.5 mL/min/kg
half-life ([3]; infusion rate 9/18/36 ng/kg/min, mean, N = 2, read-out: T1/2, effective (converted)): 3.95 h
Cmax ([3]; infusion rate 9/18/36 ng/kg/min, mean, N = 3): 5.52 ng/mL
Tmax ([3]; infusion rate 9/18/36 ng/kg/min, N = 3): 7.48 h
AUC(0-inf) ([3]; infusion rate 18/36/45 ng/kg/min, N = 1): 51.5 ng·h/mL
clearance ([3]; infusion rate 18/36/45 ng/kg/min, N = 1, read-out: CL (converted)): 4.83 mL/min/kg
Cmax ([3]; infusion rate 18/36/45 ng/kg/min, mean, N = 2): 8.04 ng/mL
Tmax ([3]; infusion rate 18/36/45 ng/kg/min, N = 2): 7.34 h
clearance ([3]; read-out: Mean systemic clearance): 3.17 to 7.67 mL/min/kg
half-life ([3]; read-out: Mean terminal half-life): 0.24 to 7.04 h
half-life ([3]; read-out: effective half-life): 1.32 to 2.51 h
